Source: ChEMBL document CHEMBL3885881, “DrugMatrix”

Species: Rattus norvegicus
Test: DrugMatrix - Regimen: Daily Repeat
Type: toxicity, organism-based, Sprague-Dawley
Design: regimen Daily Repeat, gender Male, age 6-8 weeks
Details: in vivo, po, route oral GAVAGE, vehicle .5 % CMC; for ALBUMIN / ALKALINE PHOSPHATASE / ASPARTATE AMINOTRANSFERASE / BLOOD UREA NITROGEN / CARBON DIOXIDE / CHLORIDE / CHOLESTEROL / CREATINE PHOSPHOKINASE / CREATININE / GLUCOSE / LACTATE DEHYDROGENASE / PHOSPHORUS / POTASSIUM / SODIUM / TOTAL BILIRUBIN / TOTAL PROTEIN / URIC ACID / ALANINE AMINOTRANSFERASE: tissue Plasma; for ABSOLUTE BASOPHIL / ABSOLUTE EOSINOPHIL / ABSOLUTE LYMPHOCYTE / ABSOLUTE SEGMENTED NEUTROPHIL / BASOPHIL / EOSINOPHIL / ERYTHROCYTE COUNT / HEMATOCRIT / LEUKOCYTE COUNT / LYMPHOCYTE / MEAN CORPUSCULAR HEMOGLOBIN / MEAN CORPUSCULAR HEMOGLOBIN CONCENTRATION / MEAN CORPUSCULAR VOLUME / MONOCYTE / NEUTROPHIL / NUCLEATED RED BLOOD CELLS / PLATELET COUNT: tissue Blood
[1] = 3 mg/kg, 120 h, dose level Low, time 5 day
[2] = 250 mg/kg, 72 h, dose level M1, time 3 day
[3] = 250 mg/kg, 120 h, dose level M1, time 5 day
[4] = 500 mg/kg, 72 h, dose level High, time 3 day

CCN(CC)CCOc1ccc(/C(=C(/Cl)c2ccccc2)c2ccccc2)cc1 [ENCLOMIPHENE]
ALBUMIN [1]: 4.23 G/DL | ALKALINE PHOSPHATASE [1]: 396 u/L | ASPARTATE AMINOTRANSFERASE [1]: 74.33 u/L | BLOOD UREA NITROGEN [1]: 15 mg/dL | CARBON DIOXIDE [1]: 26 mmol/L | CHLORIDE [1]: 102.33 MEQ/L | CHOLESTEROL [1]: 19 mg/dL | CREATINE PHOSPHOKINASE [1]: 301 u/L | CREATININE [1]: 0.17 mg/dL | GLUCOSE [1]: 167.33 mg/dL | LACTATE DEHYDROGENASE [1]: 159.33 u/L | PHOSPHORUS [1]: 11.77 mg/dL | POTASSIUM [1]: 6.49 MEQ/L | SODIUM [1]: 144.63 MEQ/L | TOTAL BILIRUBIN [1]: 0.13 mg/dL | TOTAL PROTEIN [1]: 6.17 G/DL | URIC ACID [1]: 1.3 mg/dL | ABSOLUTE BASOPHIL [2]: 0 CELLS/uL | ABSOLUTE EOSINOPHIL [2]: 257 CELLS/uL | ABSOLUTE LYMPHOCYTE [2]: 8100 CELLS/uL | ABSOLUTE SEGMENTED NEUTROPHIL [2]: 6509.67 CELLS/uL | BASOPHIL [2]: 0% | EOSINOPHIL [2]: 1.67% | ERYTHROCYTE COUNT [2]: 6.81 x10E6/uL | HEMATOCRIT [2]: 42.67% | LEUKOCYTE COUNT [2]: 14.87 x10E3/uL | LYMPHOCYTE [2]: 63% | MEAN CORPUSCULAR HEMOGLOBIN [2]: 22.93 pg | MEAN CORPUSCULAR HEMOGLOBIN CONCENTRATION [2]: 36.33 G/DL | MEAN CORPUSCULAR VOLUME [2]: 63.07 fL | MONOCYTE [2]: 0% | NEUTROPHIL [2]: 35.33% | NUCLEATED RED BLOOD CELLS [2]: 0 /100WBC | PLATELET COUNT [2]: 1358.67 x10E3/uL | ALANINE AMINOTRANSFERASE [2]: 103.33 u/L | ALBUMIN [2]: 3.87 G/DL | ALKALINE PHOSPHATASE [2]: 393.33 u/L | ASPARTATE AMINOTRANSFERASE [2]: 112.33 u/L | BLOOD UREA NITROGEN [2]: 17 mg/dL | CARBON DIOXIDE [2]: 21.67 mmol/L | CHLORIDE [2]: 104.67 MEQ/L | CHOLESTEROL [2]: 20.67 mg/dL | CREATINE PHOSPHOKINASE [2]: 596.67 u/L | CREATININE [2]: 0.17 mg/dL | GLUCOSE [2]: 156.67 mg/dL | LACTATE DEHYDROGENASE [2]: 305 u/L | PHOSPHORUS [2]: 12.63 mg/dL | POTASSIUM [2]: 6.02 MEQ/L | SODIUM [2]: 145 MEQ/L | TOTAL BILIRUBIN [2]: 0.0667 mg/dL | TOTAL PROTEIN [2]: 5.43 G/DL | URIC ACID [2]: 2.13 mg/dL | ABSOLUTE BASOPHIL [3]: 0 CELLS/uL | ABSOLUTE EOSINOPHIL [3]: 97.33 CELLS/uL | ABSOLUTE LYMPHOCYTE [3]: 15789.33 CELLS/uL | ABSOLUTE SEGMENTED NEUTROPHIL [3]: 1980 CELLS/uL | BASOPHIL [3]: 0% | EOSINOPHIL [3]: 0.67% | ERYTHROCYTE COUNT [3]: 7.29 x10E6/uL | HEMATOCRIT [3]: 44.07% | LEUKOCYTE COUNT [3]: 17.87 x10E3/uL | LYMPHOCYTE [3]: 88.33% | MEAN CORPUSCULAR HEMOGLOBIN [3]: 22.33 pg | MEAN CORPUSCULAR HEMOGLOBIN CONCENTRATION [3]: 36.8 G/DL | MEAN CORPUSCULAR VOLUME [3]: 60.6 fL | MONOCYTE [3]: 0% | NEUTROPHIL [3]: 11% | NUCLEATED RED BLOOD CELLS [3]: 0 /100WBC | PLATELET COUNT [3]: 1119 x10E3/uL | ALANINE AMINOTRANSFERASE [3]: 135 u/L | ALBUMIN [3]: 3.8 G/DL | ALKALINE PHOSPHATASE [3]: 350 u/L | ASPARTATE AMINOTRANSFERASE [3]: 128 u/L | BLOOD UREA NITROGEN [3]: 17.67 mg/dL | CARBON DIOXIDE [3]: 25.33 mmol/L | CHLORIDE [3]: 104.33 MEQ/L | CHOLESTEROL [3]: 27.67 mg/dL | CREATINE PHOSPHOKINASE [3]: 820.67 u/L | CREATININE [3]: 0.15 mg/dL | GLUCOSE [3]: 142.67 mg/dL | LACTATE DEHYDROGENASE [3]: 135 u/L | PHOSPHORUS [3]: 11.73 mg/dL | POTASSIUM [3]: 6.75 MEQ/L | SODIUM [3]: 147.17 MEQ/L | TOTAL BILIRUBIN [3]: 0.1 mg/dL | TOTAL PROTEIN [3]: 5.37 G/DL | URIC ACID [3]: 1.8 mg/dL | ABSOLUTE BASOPHIL [4]: 0 CELLS/uL | ABSOLUTE EOSINOPHIL [4]: 68.67 CELLS/uL | ABSOLUTE LYMPHOCYTE [4]: 11139 CELLS/uL | ABSOLUTE SEGMENTED NEUTROPHIL [4]: 1343.67 CELLS/uL | BASOPHIL [4]: 0% | EOSINOPHIL [4]: 0.67% | ERYTHROCYTE COUNT [4]: 6.43 x10E6/uL | HEMATOCRIT [4]: 40.43% | LEUKOCYTE COUNT [4]: 12.83 x10E3/uL | LYMPHOCYTE [4]: 86.67% | MEAN CORPUSCULAR HEMOGLOBIN [4]: 24.7 pg | MEAN CORPUSCULAR HEMOGLOBIN CONCENTRATION [4]: 39.23 G/DL | MEAN CORPUSCULAR VOLUME [4]: 62.87 fL | MONOCYTE [4]: 2% | NEUTROPHIL [4]: 10.67% | NUCLEATED RED BLOOD CELLS [4]: 0 /100WBC | PLATELET COUNT [4]: 1271 x10E3/uL | ALANINE AMINOTRANSFERASE [4]: 113.33 u/L | ALBUMIN [4]: 3.63 G/DL | ALKALINE PHOSPHATASE [4]: 288.33 u/L | ASPARTATE AMINOTRANSFERASE [4]: 124 u/L | BLOOD UREA NITROGEN [4]: 11 mg/dL | CARBON DIOXIDE [4]: 32 mmol/L | CHLORIDE [4]: 105.33 MEQ/L | CHOLESTEROL [4]: 25.33 mg/dL | CREATINE PHOSPHOKINASE [4]: 861 u/L | CREATININE [4]: 0.1 mg/dL | GLUCOSE [4]: 141 mg/dL | LACTATE DEHYDROGENASE [4]: 193.67 u/L | PHOSPHORUS [4]: 12.93 mg/dL | POTASSIUM [4]: 5.84 MEQ/L | SODIUM [4]: 146.17 MEQ/L | TOTAL BILIRUBIN [4]: 0.1 mg/dL | TOTAL PROTEIN [4]: 5.03 G/DL | URIC ACID [4]: 1.43 mg/dL
